Measured values from patent US20030129190A1, “FX activity in cells in cancer, inflammatory responses and diseases and in autoimmunity” (Ramot University Authority for Applied Research & …, priority 1999, published 2003).

Test system: E-selectin-IgG chimera
Details: 5 mM EDTA; shear stress 1 dyn/cm^2
Protocol: Cells (10^6/ml) were perfused at room temperature through the chamber at a shear stress of 1 dyn/cm^2 in binding medium alone or in the presence of 5 mM EDTA (Erg+EDTA). The number of cells which accumulated and maintained rolling at the end of 1 min of perfusion in two microscopic fields was determined as described in materials and methods. […] After 1 min perfusion, adherent cells were subjected to an abrupt 5-fold increase of shear stress and the number of cells that remained bound for at least 5 sec after the increase of shear was determined. The mean number +/− range of cells accumulated at 1 dyn/cm^2 and of accumulated cells remaining stably bound at 5 dyn/cm^2 on two fields of view are shown for the E48^lo and E48^hi cells. […] Data are representative of four independent experiments.
Cultured IUC cells grown as monolayers were harvested by a 10 min incubation with H/H medium (Hanks Balanced Salt Solution, HBSS (Sigma Israel Chemicals Ltd., Rehovot, Israel), containing BSA (2 mg/ml, fraction V, Sigma) and 10 mM HEPES, pH 7.4), supplemented with 5 mM EDTA at 37 Washed cells were resuspended in the same medium at a concentration of 1×10^7 cells/ml and kept at room temperature until use. Cells were diluted 20 fold into binding medium (H/H supplemented with 2 mM Ca^2+) and immediately perfused through the flow chamber. […]

O=C(O)CN(CCN(CC(=O)O)CC(=O)O)CC(=O)O [EDTA]
adhesive interactions of E48^hi cells with E-selectin coated substrate: eliminated
